From US20210395239A1 (Hoffmann-La Roche Inc., priority 2018, published 2021) come the findings set out here.

pIC50: −log10 of the molar value. A value given as a limit tells only on which side of the number the result lay.

The target of series [1] is T1, CYP2C9 (Homo sapiens, UniProt P11712).
T1 construct: tissue BD-Gentest 452117; host or cells: human liver microsomes
Briefly: CYP inhibition assay in human liver microsome, CYP2C9. The note with it: human, human liver microsomes, probe diclofenac 5 μM, substrate diclofenac 5 μM, first value of 2C9/2D6/3A4. Format: in vitro ADME. The method, then: (§1) This is a high throughput screening assay used for assessment of reversible inhibition of CYP2C9, CYP2D6, and CYP3A4 activity of test compounds in human liver microsome (HLM) in early discovery stage.
(§2) 10 mM DMSO stock solutions of test compounds were diluted in DMSO to generate 2 mM intermediate stock solution. 250 nL, of intermediate stock solution were transferred in duplicate into 3 separate 384 well microtitre plates (assay-ready plates). A mixture of HLM and each substrate was made up. 45 μL of HLM substrate mix was then transferred to each well of an assay ready plate and mixed. The negative (solvent) and positive controls (standard inhibitor for each CYP) were included in each assay ready plate. The assay ready plate was warmed to 37° C. in an incubator over 10 minutes. 5 μL pre-warmed NADPH regenerating system was added to each incubation well to start the reaction. Final incubation volume was 50 μL. The assay plate then was placed back in the 37° C. incubator. After incubation (10 minutes for CYP2D6) for 5 minutes, incubates were quenched by addition of 50 μL 100% acetonitrile containing internal standards (400 ng/mL 13C6-4′-OH-Diclofenac, 20 ng/mL D3-Dextrorphan and 20 ng/mL D4-1′OH-Midazolam). The supernatants were collected for RapidFire/MS/MS analysis.
(§3) RapidFire online solid phase extraction/sample injection system (Agilent) coupled with API4000 triple quadrupole mass spectrometer (AB Sciex) were used for sample analysis. The mobile phase composed of acetonitrile and water supplemented with 0.1% formic acid. A C4 solid phase extraction cartridge is used for sample separation. MS detection is achieved in positive ion MRM mode.
(§4) Peak areas for substrate, metabolite and internal standard are determined using the RapidFire integrator software (version 3.6.12009.12296). Peak area ratios (PAR) of metabolite and internal standard (stable-labelled metabolite) are then calculated. The measurement window for each experiment is then defined:
(§5) PAR (0% activity)=average PAR for all incubations containing concentrated inhibitor; Par (100% activity)=average PAR for all incubations containing no inhibitor (DMSO controls); % Activity (test inhibitor)=[PAR (test inhibitor)−PAR (0% activity)]/[PAR (100% activity)−PAR (0% activity)]; % Inhibition (test inhibitor)=100-% Activity (test inhibitor).
In general terms: Microsomes from liver hold many membrane-bound enzymes, among them those of drug oxidation.

Series [2] has as its target T2, CYP2D6 (Homo sapiens, UniProt P10635).
T2 construct: tissue BD-Gentest 452117; host or cells: human liver microsomes
Description: CYP inhibition assay in human liver microsome, CYP2D6. Format: in vitro ADME. The note with it: human, human liver microsomes, probe dextromethorphan 5 μM, substrate dextromethorphan 5 μM, second value of 2C9/2D6/3A4. The method, then: as §1, §2, §3, §4, §5

For series [3], the target named is T3, hERG channel (Homo sapiens, UniProt Q12809).
T3 construct: expressed in transfected cells; host or cells: CHO (Chinese hamster ovary)
T3 sequence (Q12809 whole entry): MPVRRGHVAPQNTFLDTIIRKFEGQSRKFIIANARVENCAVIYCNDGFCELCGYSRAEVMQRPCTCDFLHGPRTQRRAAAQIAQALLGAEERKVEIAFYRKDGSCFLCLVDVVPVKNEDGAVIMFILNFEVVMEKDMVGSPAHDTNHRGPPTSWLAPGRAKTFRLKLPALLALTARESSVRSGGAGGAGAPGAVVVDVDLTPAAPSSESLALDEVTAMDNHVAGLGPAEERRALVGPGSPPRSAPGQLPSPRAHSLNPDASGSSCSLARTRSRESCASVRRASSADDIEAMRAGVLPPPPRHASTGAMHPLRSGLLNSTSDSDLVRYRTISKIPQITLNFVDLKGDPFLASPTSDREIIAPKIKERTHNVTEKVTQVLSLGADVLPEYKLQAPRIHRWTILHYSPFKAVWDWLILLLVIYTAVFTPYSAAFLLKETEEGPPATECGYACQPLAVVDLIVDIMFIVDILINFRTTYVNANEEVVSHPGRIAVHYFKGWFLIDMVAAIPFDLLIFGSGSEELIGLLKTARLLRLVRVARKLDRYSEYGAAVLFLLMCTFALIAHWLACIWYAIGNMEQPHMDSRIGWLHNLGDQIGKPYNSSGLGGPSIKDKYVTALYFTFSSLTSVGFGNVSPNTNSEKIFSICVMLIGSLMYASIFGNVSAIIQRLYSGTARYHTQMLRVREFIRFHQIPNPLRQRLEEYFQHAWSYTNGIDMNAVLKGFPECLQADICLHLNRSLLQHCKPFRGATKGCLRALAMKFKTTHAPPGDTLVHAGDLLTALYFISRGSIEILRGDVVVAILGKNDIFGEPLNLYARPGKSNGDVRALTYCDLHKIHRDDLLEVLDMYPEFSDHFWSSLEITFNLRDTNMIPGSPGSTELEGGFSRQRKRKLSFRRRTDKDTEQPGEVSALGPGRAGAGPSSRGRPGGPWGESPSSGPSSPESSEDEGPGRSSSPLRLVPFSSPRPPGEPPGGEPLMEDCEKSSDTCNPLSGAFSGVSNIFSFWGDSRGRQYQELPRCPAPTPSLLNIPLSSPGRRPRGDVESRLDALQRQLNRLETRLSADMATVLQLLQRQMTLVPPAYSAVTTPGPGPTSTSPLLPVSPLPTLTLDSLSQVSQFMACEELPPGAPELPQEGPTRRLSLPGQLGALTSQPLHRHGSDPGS
Description: hERG channel inhibition assay (patch-clamp, CHOhERG cells). Format: cell-based. The note with it: for IC20: human, CHO cells stably expressing hERG (CHOhERG); for IC20 / pIC50: patch-clamp, CHOhERG cells; for hERG IC20/TLR7 IC50 / hERG IC20/TLR8 IC50 / hERG IC20/TLR9 IC50: safety ratio. As for the experimental part:
hERG Channel Inhibition Assay:
The hERG K^+ channels were cloned in humans and stably expressed in a CHO (Chinese hamster ovary) cell line. CHOhERG cells were used for patch-clamp (voltage-clamp, whole-cell) experiments. Cells were stimulated by a voltage pattern to activate hERG channels and conduct IKhERG currents (rapid delayed outward rectifier potassium current of the hERG channel). After the cells were stabilized for a few minutes, the amplitude and kinetics of IKhERG were recorded at a stimulation frequency of 0.1 Hz, (6 bpm). Thereafter, the test compound was added to the preparation at increasing concentrations. For each concentration, an attempt was made to reach a steady-state effect, usually, this was achieved within 3-10 min at which time the next highest concentration was applied. The amplitude and kinetics of IKhERG are recorded in each concentration of the drug which were compared to the control values (taken as 100%). (references: Redfern W S, Carlsson L, Davis A S, Lynch W G, MacKenzie I, Palethorpe S, Siegl P K, Strang I, Sullivan A T, Wallis R, Camm A J, Hammond T G. 2003; Relationships between preclinical cardiac electrophysiology, clinical QT interval prolongation and torsade de pointes for a broad range of drugs: evidence for a provisional safety margin in drug development. Cardiovasc. Res. 58:32-45, Sanguinetti M C, Tristani-Firouzi M. 2006; hERG potassium channels and cardiac arrhythmia. Nature 440:463-469, Webster R, Leishman D, Walker D. 2002; Towards a drug concentration effect relationship for QT prolongation and torsades de pointes. Curr. Opin. Drug Discov. Devel. 5:116-26).
A general note: The hERG channel carries a current that helps repolarise heart muscle cells.

T2 sequence (P10635 whole entry): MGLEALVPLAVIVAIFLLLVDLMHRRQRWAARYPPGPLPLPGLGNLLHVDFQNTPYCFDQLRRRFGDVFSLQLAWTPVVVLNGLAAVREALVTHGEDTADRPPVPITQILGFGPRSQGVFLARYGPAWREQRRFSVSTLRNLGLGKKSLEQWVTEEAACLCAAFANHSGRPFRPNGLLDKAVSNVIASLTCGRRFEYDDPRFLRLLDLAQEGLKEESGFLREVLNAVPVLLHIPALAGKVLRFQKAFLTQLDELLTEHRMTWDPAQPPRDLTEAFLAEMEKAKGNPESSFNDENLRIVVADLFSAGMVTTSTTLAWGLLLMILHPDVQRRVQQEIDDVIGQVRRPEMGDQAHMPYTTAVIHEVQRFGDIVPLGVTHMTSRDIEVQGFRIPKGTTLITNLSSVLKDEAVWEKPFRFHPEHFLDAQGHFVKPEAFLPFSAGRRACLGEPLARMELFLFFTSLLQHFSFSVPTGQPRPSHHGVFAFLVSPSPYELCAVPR
T1 sequence (P11712 whole entry): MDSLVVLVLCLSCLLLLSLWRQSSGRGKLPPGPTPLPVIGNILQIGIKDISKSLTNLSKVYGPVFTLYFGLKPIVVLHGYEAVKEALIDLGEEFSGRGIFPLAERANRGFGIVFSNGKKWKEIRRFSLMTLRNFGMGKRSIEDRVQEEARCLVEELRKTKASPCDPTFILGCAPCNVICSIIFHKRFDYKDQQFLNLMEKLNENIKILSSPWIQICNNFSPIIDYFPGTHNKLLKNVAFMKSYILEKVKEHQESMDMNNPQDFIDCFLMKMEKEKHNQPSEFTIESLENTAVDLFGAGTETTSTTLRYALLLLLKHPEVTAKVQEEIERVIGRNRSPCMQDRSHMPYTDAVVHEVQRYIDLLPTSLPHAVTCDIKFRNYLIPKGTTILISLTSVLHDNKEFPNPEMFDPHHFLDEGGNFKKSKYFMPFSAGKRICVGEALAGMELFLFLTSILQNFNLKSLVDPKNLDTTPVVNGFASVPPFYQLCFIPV

In general, inhibition refers to the relative decrease from the control value, in per cent. Regarding `C[C@@H]1CN(c2ccc(C#N)c3ncccc23)C[C@H](CN2CCC(c3cccc(N4CCNCC4)c3)C2)O1` (stereo partly drawn) [Example 1, 5-[(2R,6S)-2-methyl-6-[[3-(3-piperazin-1-ylphenyl)pyrrolidin-1-yl]methyl]morpholin-4-yl]quinoline-8-carbonitrile], the inhibition at 5 min, 10 µM in series [1] was -7%. For the same compound, the inhibition at 10 min, 10 µM in series [2] is 5%.

For the compound `C[C@@H]1CN(c2ccc(C#N)c3ncccc23)C[C@H](CN2CCC(c3cccc(C4CCNCC4)c3)CC2)O1` [Example 2, 5-[(2R,6S)-2-methyl-6-[[4-[3-(4-piperidyl)phenyl]-1-piperidyl]methyl]morpholin-4-yl]quinoline-8-carbonitrile], the inhibition at 5 min, 10 µM in series [1] came to 2%. Further, in series [2], the inhibition at 10 min, 10 µM was determined as 20%.

For `C[C@@H]1CN(c2ccc(C#N)c3ncccc23)C[C@H](CN2CC(c3ccc(N4CCNCC4)cc3)C2)O1` [Example 3, 5-[(2R,6S)-2-methyl-6-[[3-(4-piperazin-1-ylphenyl)azetidin-1-yl]methyl]morpholin-4-yl]quinoline-8-carbonitrile], the inhibition at 5 min, 10 µM in series [1] is -18%. The inhibition at 10 min, 10 µM in series [2] was 13.5%.

In the case of `C[C@@H]1CN(c2ccc(C#N)c3ncccc23)C[C@H](CN2CC(c3cccc(N4CCNCC4)c3)C2)O1` [Example 4, 5-[(2R,6S)-2-methyl-6-[[3-(3-piperazin-1-ylphenyl)azetidin-1-yl]methyl]morpholin-4-yl]quinoline-8-carbonitrile], in series [1], the inhibition at 5 min, 10 µM turned out to be 5.5%. The inhibition at 10 min, 10 µM in series [2] turned out to be 11%.

Broadly, the IC20 is the point of the concentration-response curve where the effect stands at 20%. Usually pIC50 stands for −log10 of the IC50, conventionally taken in molar units. Low values mean a large IC50, high ones a small IC50. Take `CO[C@@H]1CN(c2nccc(N3CCN(C[C@H]4CN(c5ccc(C#N)c6nccnc56)C[C@@H](C)O4)CC3)n2)C[C@H]1N` [Example 98, 8-[(2S,6R)-2-[[4-[2-[(3R,4R)-3-amino-4-methoxy-pyrrolidin-1-yl]pyrimidin-4-yl]piperazin-1-yl]methyl]-6-methyl-morpholin-4-yl]quinoxaline-5-carbonitrile]: in series [3], the IC20 is more than 10 µM, the pIC50 is less than 4.70, the “hERG IC20/TLR7 IC50” value was more than 1666 and the “hERG IC20/TLR8 IC50” value is given as more than 10000. Further, in series [3], the “hERG IC20/TLR9 IC50” value is more than 204.

As for `CO[C@H]1CN(c2nccc(N3CCN(C[C@H]4CN(c5ccc(C#N)c6nccnc56)C[C@@H](C)O4)CC3)n2)C[C@@H]1N` [Example 99, 8-[(2S,6R)-2-[[4-[2-[(3S,4S)-3-amino-4-methoxy-pyrrolidin-1-yl]pyrimidin-4-yl]piperazin-1-yl]methyl]-6-methyl-morpholin-4-yl]quinoxaline-5-carbonitrile], in series [3], it took 9 µM to reach the 20% level (IC20), the pIC50 was less than 4.70, the “hERG IC20/TLR7 IC50” value came out at 818 and the “hERG IC20/TLR8 IC50” value was 9000. Moreover, the “hERG IC20/TLR9 IC50” value in series [3] is reported as 142.

As to `CO[C@H]1CN(c2nc(C)cc(N3CCN(C[C@H]4CN(c5ccc(C#N)c6nccnc56)C[C@@H](C)O4)CC3)n2)C[C@@H]1N` [Example 106, 8-[(2S,6R)-2-[[4-[2-[(3S,4S)-3-amino-4-methoxy-pyrrolidin-1-yl]-6-methyl-pyrimidin-4-yl]piperazin-1-yl]methyl]-6-methyl-morpholin-4-yl]quinoxaline-5-carbonitrile], the inhibition at 5 min, 10 µM in series [1] was 17%. In series [2], the inhibition at 10 min, 10 µM turned out to be 3%.

Take `C[C@@H]1CN(c2ccc(C#N)c3nccnc23)C[C@H](CN2CCN(c3ccnc(N4C[C@H](N)[C@@H](F)C4)n3)CC2)O1` [Example 107, 8-[(2S,6R)-2-[[4-[2-[(3S,4S)-3-amino-4-fluoro-pyrrolidin-1-yl]pyrimidin-4-yl]piperazin-1-yl]methyl]-6-methyl-morpholin-4-yl]quinoxaline-5-carbonitrile]: the inhibition at 5 min, 10 µM in series [1] is 19.5%. Besides, in series [2], the inhibition at 10 min, 10 µM came out at 16%.

With `C[C@@H]1CN(c2ccc(C#N)c3ncccc23)C[C@H](CN2CCN(c3ccnc(N4C[C@H](N)[C@@H](F)C4)n3)CC2)O1` [Example 110, 5-[(2S,6R)-2-[[4-[2-[(3S,4S)-3-amino-4-fluoro-pyrrolidin-1-yl]pyrimidin-4-yl]piperazin-1-yl]methyl]-6-methyl-morpholin-4-yl]quinoline-8-carbonitrile], the inhibition at 5 min, 10 µM in series [1] turned out to be 22%. The inhibition at 10 min, 10 µM in series [2] was 13.5%.

In the case of `Cc1cc(N2CCN(C[C@H]3CN(c4ccc(C#N)c5nccnc45)C[C@@H](C)O3)CC2)nc(N2CC(N)C2)n1` [Example 112, 8-[(2S,6R)-2-[[4-[2-(3-aminoazetidin-1-yl)-6-methyl-pyrimidin-4-yl]piperazin-1-yl]methyl]-6-methyl-morpholin-4-yl]quinoxaline-5-carbonitrile], the inhibition at 5 min, 10 µM in series [1] worked out at 0.5%. Further, in series [2], the inhibition at 10 min, 10 µM is -2%.

For `Cc1ccc(N2C[C@H](CN3CCN(c4nccc(N5CCNCC5)n4)CC3)O[C@H](C)C2)c2nccnc12` [Example 116, (2R,6S)-2-methyl-4-(8-methylquinoxalin-5-yl)-6-[[4-(4-piperazin-1-ylpyrimidin-2-yl)piperazin-1-yl]methyl]morpholine], the inhibition at 5 min, 10 µM in series [1] was -8.5%. Further, the inhibition at 10 min, 10 µM in series [2] turned out to be 10%.

As for `Cc1ccc(N2C[C@H](CN3CCN(c4ccnc(N5CCNCC5)n4)CC3)O[C@H](C)C2)c2nccnc12` [Example 117, (2R,6S)-2-methyl-4-(8-methylquinoxalin-5-yl)-6-[[4-(2-piperazin-1-ylpyrimidin-4-yl)piperazin-1-yl]methyl]morpholine], in series [1], the inhibition at 5 min, 10 µM worked out at 8.5%. The inhibition at 10 min, 10 µM in series [2] was found to be 4.5%.

For the compound `C[C@@H]1CN(c2ccc(C#N)c3nccnc23)C[C@H](CN2CCN(c3nccc(N4CC(N)C4)n3)CC2)O1` [Example 118, 8-[(2S,6R)-2-[[4-[4-(3-aminoazetidin-1-yl)pyrimidin-2-yl]piperazin-1-yl]methyl]-6-methyl-morpholin-4-yl]quinoxaline-5-carbonitrile], in series [3], the IC20 is more than 10 µM, the pIC50 is less than 4.70, the “hERG IC20/TLR7 IC50” value is on record as more than 2500 and the “hERG IC20/TLR8 IC50” value is on record as more than 10000. The “hERG IC20/TLR9 IC50” value in series [3] was more than 196.

With `C[C@@H]1CN(c2ccc(C#N)c3nccnc23)C[C@H](CN2CCN(c3nccc(N4C[C@@H](N)[C@H](F)C4)n3)CC2)O1` [Example 119, 8-[(2S,6R)-2-[[4-[4-[(3R,4R)-3-amino-4-fluoro-pyrrolidin-1-yl]pyrimidin-2-yl]piperazin-1-yl]methyl]-6-methyl-morpholin-4-yl]quinoxaline-5-carbonitrile], the inhibition at 5 min, 10 µM in series [1] was -12.5%. The inhibition at 10 min, 10 µM in series [2] was -8.5%.

In the case of `[2H]c1ccc2c(N3C[C@H](CN4CCN(c5nc(C)cc(N6C[C@@H](N)[C@H](OC)C6)n5)CC4)O[C@H](C)C3)ccc(C#N)c2n1` [Example 144, 5-[(2S,6R)-2-[[4-[4-[(3R,4R)-3-amino-4-methoxy-pyrrolidin-1-yl]-6-methyl-pyrimidin-2-yl]piperazin-1-yl]methyl]-6-methyl-morpholin-4-yl]-2-deuterio-quinoline-8-carbonitrile], in series [3], the 20% effect concentration (IC20) was more than 10 µM, the negative-log IC50 (pIC50) is less than 4.70, the “hERG IC20/TLR7 IC50” value is recorded as more than 909 and the “hERG IC20/TLR8 IC50” value is given as more than 10000. Further, the “hERG IC20/TLR9 IC50” value in series [3] was more than 322.
